From patent US8354403B2, “Pyrrolidine derived beta 3 adrenergic receptor agonists” (Merck Sharp & Dohme Corp., priority 2009, dated 2013)
Where two headings read alike, the source gives them in different places. Each block holds one compound with its values, some of them ahead of it.

Biological target: T1, human β3 adrenergic receptor (Homo sapiens, UniProt P13945)
T1 construct: expressed in transfected cells; host or cells: Chinese hamster ovary (CHO) cells, stably transfected
Test: Beta-3 agonist in vitro functional assay: cAMP production (LANCE TR-FRET) in CHO cells stably transfected with the cloned β3 receptor
Format: cell-based
How it was run: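 CHO cells stably expressing the cloned receptor, in HEPES-buffered HBSS with BSA and 0.6 mM IBMX, 6,000 cells/well, exposed to compound for 30 min at RT. cAMP read by LANCE TR-FRET against a cAMP standard curve. Isoproterenol defines maximal stimulation.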

[1] = Table 5, cAMP, CHO cells, read-out: Human β3 agonist functional activity
[2] = Table 9, Beta-3 agonist in vitro functional assay, read-out: Human β3 agonist functional activity
[3] = Table 10, Beta-3 agonist in vitro functional assay, read-out: Human β3 agonist functional activity
[4] = Table 8, Beta-3 agonist in vitro functional assay, read-out: Human β3 agonist functional activity
[5] = Table 12, human β3 functional activity given as ranges, read-out: Human β3 agonist functional activity
[6] = Table 4, cAMP, CHO cells, read-out: Human β3 agonist functional activity

T1 sequence (P13945 whole entry): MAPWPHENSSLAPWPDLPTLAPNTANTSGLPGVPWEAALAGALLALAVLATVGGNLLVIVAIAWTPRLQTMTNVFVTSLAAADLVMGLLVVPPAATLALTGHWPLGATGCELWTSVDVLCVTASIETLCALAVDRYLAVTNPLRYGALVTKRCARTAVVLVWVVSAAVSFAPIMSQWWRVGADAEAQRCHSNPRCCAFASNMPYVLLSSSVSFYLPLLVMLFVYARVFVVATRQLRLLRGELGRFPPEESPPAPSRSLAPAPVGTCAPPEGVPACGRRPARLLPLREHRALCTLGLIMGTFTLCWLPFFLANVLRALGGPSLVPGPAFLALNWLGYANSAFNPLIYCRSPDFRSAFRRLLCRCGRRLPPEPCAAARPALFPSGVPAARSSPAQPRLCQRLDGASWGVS

EC50 [1]: 0.01 to 0.0999 µM
SMILES: Cc1cn(C2CCN(C(=O)c3ccc(C[C@@H]4CC[C@H]([C@H](O)c5ccccc5)N4)cc3)CC2)nn1 [Example 95]

EC50 [2]: 0.01 to 0.0999 µM
SMILES: CC(c1cnccn1)N1CCN(C(=O)c2ccc(C[C@@H]3CC[C@H]([C@H](O)c4ccccc4)N3)cc2)CC1 (stereo partly shown) [Example 428]

EC50 [1]: 0.01 to 0.0999 µM
SMILES: CC(C1CCN(C(=O)c2ccc(C[C@@H]3CC[C@H]([C@H](O)c4ccccc4)N3)cc2)CC1)n1cnccc1=O (stereo partly shown) [Example 166]

EC50 [4]: 0.01 to 0.0999 µM
SMILES: O=C(c1ccc(C[C@@H]2CC[C@H]([C@H](O)c3cccnc3)N2)cc1)N1CCC2(CC1)NC(=O)N(Cc1ccccc1)C2=O [Example 270]

EC50 [5]: 0.001 to 0.0099 µM
SMILES: O=C1OCCC1N1CCN(C(=O)c2ccc(CC3CCC(C(O)c4ccccc4)N3)cc2)CC1 (single isomer, unassigned) [Example 604]

EC50 [6]: 0.1 to 0.999 µM
SMILES: CO[C@@H]1CCN(C(=O)c2ccc(C[C@@H]3CC[C@H]([C@H](O)c4ccccc4)N3)cc2)C1 [Example 7]

EC50 [2]: 0.1 to 0.999 µM
SMILES: CC(=O)N1CCN(C(=O)c2ccc(C[C@@H]3CC[C@H]([C@H](O)c4ccccc4)N3)cc2)CC1 [Example 343]

EC50 [6]: 0.1 to 0.999 µM
SMILES: CCOC(=O)C1CCN(C(=O)c2ccc(C[C@@H]3CC[C@H]([C@H](O)c4ccccc4)N3)cc2)C1 (stereo partly shown) [Example 6]

EC50 [4]: 0.001 to 0.0099 µM
SMILES: O=C(c1ccc(C[C@@H]2CC[C@H]([C@H](O)c3cccnc3)N2)cc1)N1CCC2(CC1)C(=O)NCN2c1ccccc1 [Example 259]

EC50 [6]: 0.1 to 0.999 µM
SMILES: CO[C@H]1CCN(C(=O)c2ccc(C[C@@H]3CC[C@H]([C@H](O)c4ccccc4)N3)cc2)C1 [Example 8]

EC50 [1]: 0.1 to 0.999 µM
SMILES: CS(=O)(=O)C1CCN(C(=O)c2ccc(C[C@@H]3CC[C@H]([C@H](O)c4cccnc4)N3)cc2)CC1 [Example 123]

EC50 [1]: 0.01 to 0.0999 µM
SMILES: O=C(c1ccc(C[C@@H]2CC[C@H]([C@H](O)c3ccccc3)N2)cc1)N1CCC(S(=O)(=O)C2CCCC2)CC1 [Example 126]

EC50 [1]: 0.01 to 0.0999 µM
SMILES: CS(=O)(=O)c1ccccc1OC1CCN(C(=O)c2ccc(C[C@@H]3CC[C@H]([C@H](O)c4ccccc4)N3)cc2)CC1 [Example 156]

EC50 [1]: 0.1 to 0.999 µM
SMILES: O=C(c1ccc(C[C@@H]2CC[C@H]([C@H](O)c3ccccc3)N2)cc1)N1CCC(Oc2cncc(Cl)n2)CC1 [Example 155]

EC50 [4]: 0.01 to 0.0999 µM
SMILES: O=C1NC(=O)C2(CCN(C(=O)c3ccc(C[C@@H]4CC[C@H]([C@H](O)c5cccnc5)N4)cc3)CC2)N1 [Example 268]

EC50 [1]: 0.01 to 0.0999 µM
SMILES: O=C(c1ccc(C[C@@H]2CC[C@H]([C@H](O)c3ccccc3)N2)cc1)N1CCC(S(=O)(=O)c2ccc(F)c(F)c2)CC1 [Example 138]

EC50 [1]: 0.1 to 0.999 µM
SMILES: O=C(c1ccc(C[C@@H]2CC[C@H]([C@H](O)c3ccccc3)N2)cc1)N1CCC(c2nnc(-c3cnccn3)[nH]2)CC1 [Example 81]

EC50 [1]: 0.1 to 0.999 µM
SMILES: Cc1ccc(S(=O)(=O)C2CCN(C(=O)c3ccc(C[C@@H]4CC[C@H]([C@H](O)c5cccnc5)N4)cc3)CC2)cc1 [Example 135]

Second part, the compound before the results:

SMILES: O=C(c1ccc(C[C@@H]2CC[C@H]([C@H](O)c3ccccc3)N2)cc1)N1CCN(c2nsc3ccccc23)CC1 [Example 386]
EC50 [2]: 0.01 to 0.0999 µM

SMILES: CC(C(=O)N(C)C(C1CC1)C1CC1)N1CCN(C(=O)c2ccc(C[C@@H]3CC[C@H]([C@H](O)c4ccccc4)N3)cc2)CC1 (stereo partly shown) [Example 523]
EC50 [3]: 0.01 to 0.0999 µM

SMILES: O=C(c1ccccc1)N1CCN(C(=O)c2ccc(C[C@@H]3CC[C@H]([C@H](O)c4ccccc4)N3)cc2)CC1 [Example 347]
EC50 [2]: 0.1 to 0.999 µM

SMILES: O=C(c1ccc(C[C@@H]2CC[C@H]([C@H](O)c3ccccc3)N2)cc1)N1CCC2(CCCO2)CC1 [Example 307]
EC50 [4]: 0.01 to 0.0999 µM

SMILES: O=C(c1ccc(C[C@@H]2CC[C@H]([C@H](O)c3ccccc3)N2)cc1)N1CCN(c2ncccc2-c2ccc(F)cc2)CC1 [Example 369]
EC50 [2]: 0.01 to 0.0999 µM

SMILES: CCOC(=O)C1C2CN(C(=O)c3ccc(CC4CCC(C(O)c5ccccc5)N4)cc3)CC21 (stereo not shown) [Example 230]
EC50 (Table 7, cAMP, CHO cells, ranges as given for Tables 6 and 7, read-out: Human β3 agonist functional activity): 0.01 to 0.0999 µM

SMILES: O=C(O)c1csc(N2CCN(C(=O)c3ccc(C[C@@H]4CC[C@H]([C@H](O)c5ccccc5)N4)cc3)CC2)n1 [Example 382]
EC50 [2]: 0.999 to 3 µM

SMILES: O=C(c1ccc(C[C@@H]2CC[C@H]([C@H](O)c3ccccc3)N2)cc1)N1CCCC(c2nc3ccccc3o2)C1 (stereo partly shown) [Example 33]
EC50 [6]: 0.1 to 0.999 µM

SMILES: CCN(C(=O)C(C)N1CCN(C(=O)c2ccc(C[C@@H]3CC[C@H]([C@H](O)c4ccccc4)N3)cc2)CC1)C(C)C (stereo partly shown) [Example 515]
EC50 [3]: 0.01 to 0.0999 µM

SMILES: CC(C(=O)N1CCc2cnccc2C1)N1CCN(C(=O)c2ccc(C[C@@H]3CC[C@H]([C@H](O)c4ccccc4)N3)cc2)CC1 (stereo partly shown) [Example 508]
EC50 [3]: 0.01 to 0.0999 µM

SMILES: O=C(c1ccc(C[C@@H]2CC[C@H]([C@H](O)c3ccccc3)N2)cc1)N1CCCC2(CCCNC2=O)C1 (stereo partly shown) [Example 39]
EC50 [6]: 0.1 to 0.999 µM

SMILES: CCOC(=O)C1CCCN(C(=O)c2ccc(C[C@@H]3CC[C@H]([C@H](O)c4ccccc4)N3)cc2)C1 (stereo partly shown) [Example 31]
EC50 [6]: 0.01 to 0.0999 µM

SMILES: CC(C(=O)NC1(c2ccccn2)CC1)N1CCN(C(=O)c2ccc(C[C@@H]3CC[C@H]([C@H](O)c4ccccc4)N3)cc2)CC1 (stereo partly shown) [Example 470]
EC50 [3]: 0.01 to 0.0999 µM

SMILES: CC(C(=O)NCC(N)=O)N1CCN(C(=O)c2ccc(C[C@@H]3CC[C@H]([C@H](O)c4ccccc4)N3)cc2)CC1 (stereo partly shown) [Example 445]
EC50 [3]: 0.1 to 0.999 µM

SMILES: Cc1cc(C)nc(N2CCN(C(=O)c3ccc(C[C@@H]4CC[C@H]([C@H](O)c5ccccc5)N4)cc3)CC2)n1 [Example 372]
EC50 [2]: 0.1 to 0.999 µM

SMILES: CC1CCCN(C(=O)C(C)N2CCN(C(=O)c3ccc(C[C@@H]4CC[C@H]([C@H](O)c5ccccc5)N4)cc3)CC2)C1 (stereo partly shown) [Example 486]
EC50 [3]: 0.01 to 0.0999 µM

SMILES: CN(C)C(=O)c1cc(OC2CCN(C(=O)c3ccc(C[C@@H]4CC[C@H]([C@H](O)c5ccccc5)N4)cc3)CC2)no1 [Example 158]
EC50 [1]: 0.1 to 0.999 µM

SMILES: CCN(CC)C(=O)C(C)N1CCN(C(=O)c2ccc(C[C@@H]3CC[C@H]([C@H](O)c4ccccc4)N3)cc2)CC1 (stereo partly shown) [Example 516]
EC50 [3]: 0.1 to 0.999 µM

SMILES: O=C(c1ccc(C[C@@H]2CC[C@H]([C@H](O)c3ccccc3)N2)cc1)N1CCC(n2cc(-c3ccccc3)nn2)CC1 [Example 80]
EC50 [1]: 0.1 to 0.999 µM

SMILES: CN1CC(c2ccc(F)cc2)C2(CCN(C(=O)c3ccc(C[C@@H]4CC[C@H]([C@H](O)c5ccccc5)N4)cc3)CC2)C1=O (stereo partly shown) [Example 262]
EC50 [4]: < 0.001 µM

SMILES: CC(C(=O)N1CCC[C@H]1C(N)=O)N1CCN(C(=O)c2ccc(C[C@@H]3CC[C@H]([C@H](O)c4ccccc4)N3)cc2)CC1 (stereo partly shown) [Example 478]
EC50 [3]: 0.1 to 0.999 µM

SMILES: O=C(c1ccc(CC2CCC(C(O)c3ccccc3)N2)cc1)N1CCN(C2CCN(C3CC3)C2=O)CC1 (single isomer, unassigned) [Example 608]
EC50 [5]: 0.01 to 0.0999 µM

SMILES: Cc1noc(C2CCN(C(=O)c3ccc(C[C@@H]4CC[C@H]([C@H](O)c5ccccc5)N4)cc3)C2)n1 (stereo partly shown) [Example 11]
EC50 [6]: 0.1 to 0.999 µM

SMILES: CCN(CCO)C(=O)C(C)N1CCN(C(=O)c2ccc(C[C@@H]3CC[C@H]([C@H](O)c4ccccc4)N3)cc2)CC1 (stereo partly shown) [Example 520]
EC50 [3]: 0.01 to 0.0999 µM

SMILES: O=C(c1ccc(C[C@@H]2CC[C@H]([C@H](O)c3ccccc3)N2)cc1)N1CCC2(CC1)C(=O)NCC2c1ccc(C(F)(F)F)cc1 (stereo partly shown) [Example 263]
EC50 [4]: < 0.001 µM

SMILES: O=C(c1ccc(C[C@@H]2CC[C@H]([C@H](O)c3ccccc3)N2)cc1)N1CC2CCNC2C1 (stereo partly shown) [Example 24]
EC50 [6]: 0.1 to 0.999 µM

SMILES: CCC(c1ccccn1)N1CCN(C(=O)c2ccc(CC3CCC(C(O)c4ccccc4)N3)cc2)CC1 (single isomer, unassigned) [Example 587]
EC50 [5]: 0.01 to 0.0999 µM

SMILES: O=C(c1ccc(C[C@@H]2CC[C@H]([C@H](O)c3ccccc3)N2)cc1)N1CCC(c2nc3ccccc3o2)CC1 [Example 78]
EC50 [1]: 0.1 to 0.999 µM

SMILES: O=C1CN(C(=O)c2ccc(C[C@@H]3CC[C@H]([C@H](O)c4ccccc4)N3)cc2)CCN1Cc1ccccn1 [Example 545]
EC50 (Table 11, cAMP, CHO cells, read-out: Human β3 agonist functional activity): 0.1 to 0.999 µM

SMILES: O=C(c1ccc(C[C@@H]2CC[C@H]([C@H](O)c3ccccc3)N2)cc1)N1CCN(Cc2ncccc2C(F)(F)F)CC1 [Example 417]
EC50 [2]: 0.01 to 0.0999 µM

SMILES: Cn1nnnc1C1(C)CCN(C(=O)c2ccc(C[C@@H]3CC[C@H]([C@H](O)c4ccccc4)N3)cc2)CC1 [Example 244]
EC50 [4]: 0.1 to 0.999 µM

SMILES: O=C(c1ccc(C[C@@H]2CC[C@H]([C@H](O)c3ccccc3)N2)cc1)N1CCN(Cc2noc3ccccc23)CC1 [Example 407]
EC50 [2]: 0.001 to 0.0099 µM

SMILES: O=C(c1ccc(C[C@@H]2CC[C@H]([C@H](O)c3ccccc3)N2)cc1)N1CCN(c2nccc3ccccc23)CC1 [Example 373]
EC50 [2]: 0.01 to 0.0999 µM

SMILES: O=C(c1ccc(C[C@@H]2CC[C@H]([C@H](O)c3ccccc3)N2)cc1)N1CCC2(CCOC2=O)CC1 [Example 239, 8-[4-({(2S,5R)-5-[(R)-hydroxy(phenyl)methyl]pyrrolidin-2-yl}methyl)benzoyl]-2-oxa-8-azaspiro[4.5]decan-1-one]
EC50 (given as a range, cAMP, CHO cells, read-out: human β3 functional activity): 0.001 to 0.0099 µM

SMILES: CC(c1ncccc1Cl)N1CCN(C(=O)c2ccc(CC3CCC(C(O)c4ccccc4)N3)cc2)CC1 (single isomer, unassigned) [Example 594]
EC50 [5]: 0.001 to 0.0099 µM

SMILES: COC[C@H](C)NC(=O)C(C)N1CCN(C(=O)c2ccc(C[C@@H]3CC[C@H]([C@H](O)c4ccccc4)N3)cc2)CC1 (stereo partly shown) [Example 446]
EC50 [3]: 0.01 to 0.0999 µM

SMILES: C[C@@H]1CN(C(=O)c2ccc(C[C@@H]3CC[C@H]([C@H](O)c4ccccc4)N3)cc2)CC[C@@H]1n1cccn1 [Example 60]
EC50 [6]: 0.01 to 0.0999 µM

SMILES: CC1(c2nn[nH]n2)CCN(C(=O)c2ccc(C[C@@H]3CC[C@H]([C@H](O)c4ccccc4)N3)cc2)CC1 [Example 243]
EC50 [4]: 0.1 to 0.999 µM

SMILES: O=C(c1ccc(C[C@@H]2CC[C@H]([C@H](O)c3ccccc3)N2)cc1)N1CCC2(CC1)C(=O)NCC2c1ccccc1C(F)(F)F (stereo partly shown) [Example 265]
EC50 [4]: 0.001 to 0.0099 µM

SMILES: NC(=O)CN1CCN(C(=O)c2ccc(C[C@@H]3CC[C@H]([C@H](O)c4ccccc4)N3)cc2)CC1 [Example 388]
EC50 [2]: 0.1 to 0.999 µM
